Laboratory results taken from patent publication US11420181B2, “Methods for suppression of ammonia formation from staphylococcus-xylosus and staphylococcus-cohnii” (Dow Global Technologies LLC, priority 2016, dated 2022).

Columns and labels:
Staphylococcus-cohnii = assay: Lab headspace ammonia test on ground straw with synthetic poultry urine, Example 3; type: cell-based
Procedure: (§1) Synthetic Poultry Urine Preparation. In these Examples, synthetic urine was prepared as follows for each 100 g of synthetic poultry urine needed. The amounts can be scaled up or down as needed. The following components were added to a sterilized bottle: Urea (USP Grade): 0.43 g, Ammonia: 0.46 g, K3PO4 (USP grade): 6.8 g, Milli-Q water: 83.52 g. The bottle was capped and placed on a bottle roller at ambient temperature for 1 to 3 hours. The pH of the solution was measured to confirm the pH is between 13 and 14.
(§2) Bacteria Preparation. In these Examples, the Staphylococcus-cohnii and the Staphylococcus-cohnii/Staphylococcus-xylosus bacteria strains used were environmental isolates from poultry manure and cat litter respectively. As used herein, “Staphylococcus-cohnii/Staphylococcus-xylosus” refers to a bacteria strain that is an environmental isolate from cat feces that through DNA sequencing has been identified to be genetically similar to both Staphylococcus-cohnii and Staphylococcus-xylosus. The identifications were determined by DNA sequencing at an external lab with genus confidence level.
(§3) The bacteria strains were isolated on a sterile tryptic soy agar plate, grown for 2 days in a 30 degrees ° C. incubator and stored in a refrigerator. A fresh plate was prepared every 2 weeks.
The bacteria were grown the day before the start of the experiments by taking a loopful of the bacteria from the agar plate with a 10 uL loop and immersing it in 10 mL sterile tryptic soy broth filling half of the container. All bacteria used in the Examples are aerobic and therefore need air on top of the growth medium. The vials were incubated at 30 degrees C. in a shaking incubator at 100 rpm for 24 hours. The count of the bacteria in the growth media was determined by the serial dilutions method, where 10 serial dilutions of the growth medium in sterile Physiological Buffered Saline (PBS) solution are performed with 10× dilution each time. Each dilution was plated twice using 100 μL of growth media for each plate. The numbers of colonies were counted on the dilution plate that had between 30 and 300 colony forming units (CFU) on it. The number of colony forming units in the original growth media was then determined by back-calculating the number of dilutions. […] All pipettes, containers, tips, spoons etc. equipment used for these experiments were sterile in order to prevent contamination with other bacteria. Litters, treatments and chemicals used for preparing synthetic urine were used as-is, without sterilization.
Preparation of grinded straw bedding. A sterilized lab blender was loaded with straw and grinded at pulsed, high setting for 15-45 seconds. Then a new batch of straw was loaded to the blender. […]

[1] = system: Staphylococcus-xylosus/Staphylococcus-cohnii; assay: Lab headspace ammonia test on ground straw with synthetic poultry urine, Example 4; type: cell-based
Procedure: as §1, §2, §3
The bacteria were grown the day before the start of the experiments by taking a loopful of the bacteria from the agar plate with a 10 uL loop and immersing it in 10 mL sterile tryptic soy broth filling half of the container. All bacteria used in the Examples are aerobic and therefore need air on top of the growth medium. […] The count of the bacteria in the growth media was determined by the serial dilutions method, where 10 serial dilutions of the growth medium in sterile Physiological Buffered Saline (PBS) solution are performed with 10× dilution each time. […] The numbers of colonies were counted on the dilution plate that had between 30 and 300 colony forming units (CFU) on it. The number of colony forming units in the original growth media was then determined by back-calculating the number of dilutions. […]

[2] = Barrel test experiments on used broiler litter, Examples 5-8; conditions: used rice hull litter in tubs, vs untreated control
Excerpt: Used litter (rice hulls which may also contain poultry manure, moisture, feed residue and/or feathers) were acquired from a commercial broiler chicken farm and transported in plastic barrels. Twenty three kilograms of litter were weighed into 0.4 m^2 plastic tubs to cover the tubs to a depth of approximately 10 cm. The tubs were stored uncovered in a poultry rearing facility, and environmental conditions were controlled to mimic the conditions that would be experienced in a commercial broiler house (temperature around 32° C.).
Tubs were treated with NaHSO4 at a dose equivalent to 1 wt % Ammonia was then measured for 35 days.
Tubs were treated in two steps. A dose equivalent to 1 wt % of NaHSO4 as Acidifier was added to the tubs. After 24 hours, a dose equivalent to 3.2 wt % of Na2EDTA was added and dispersed. Ammonia was then measured for 35 days.
Tubs were treated in two steps. A dose equivalent to 1 wt % of NaHSO4 as Acidifier was added to the tubs. After 24 hours, a dose equivalent to 3.2 wt % of K2EDTA was added as an aqueous solution. Ammonia was then measured for 35 days.
Tubs were treated in two steps. A dose equivalent to 1.23 wt % of EDTA Acid was added to the tubs. After 24 hours, a dose equivalent to 3.2 wt % of Na2EDTA was added and dispersed. Ammonia was then measured for 35 days.

[3] = 1 day after treatment, vs untreated control
[4] = 3 days after treatment, untreated control 200+ ppm (above tube limit)

SMILES	% improvement in headspace ammonia (Staphylococcus-cohnii; [3])	% improvement in headspace ammonia (Staphylococcus-cohnii; [4])	% improvement in headspace ammonia [1, 3]	% improvement in headspace ammonia [1, 4]	% improvement in headspace ammonia ([2]; 3 days after treatment)	% improvement in headspace ammonia ([2]; 7 days after treatment)	% improvement in headspace ammonia ([2]; 14 days after treatment)	% improvement in headspace ammonia ([2]; 21 days after treatment)	% improvement in headspace ammonia ([2]; 28 days after treatment)
O=C(O)CN(CCN(CC(=O)O)CC(=O)O)CC(=O)O.[K].[K] [2.5% K2EDTA sprayed on top, dipotassium ethylenediaminetetraacetic acid]	64%	5+ %	57%						
O=C(O)CN(CCN(CC(=O)O)CC(=O)O)CC(=O)O.[K].[K] [2.5% K2EDTA, dipotassium ethylenediaminetetraacetic acid]	64%	8+ %	73%	12+ %					
O=S(=O)([O-])O.[Na+] [1 wt % NaHSO4, NaHSO4]					92%	74%	37%	−37%	−16%
